This passage reports IC50 results from US9809573B2, “Substituted pyridine derivatives useful as GSK-3 inhibitors” (priority 2013, dated 2017).

The target in one assay is GSK3α (Homo sapiens, UniProt P49840). As to the kind of experiment: biochemical. Particulars: for IC50: second value of the cell, 250 pM enzyme, 20 uM ATP, 20 hours at room temperature, read-out: GSK3β/α (nM): GSK3α IC50. Here is the method: (§1) The kinase assay was performed in V-bottom 384-well plates. […] The reaction was incubated at room temperature for 20 hours and terminated by adding 45 μl of 35 mM EDTA to each sample. The reaction mixture was analyzed on the Caliper LabChip3000 (Caliper, Hopkinton, Mass.) by electrophoretic separation of the unphosphorylated substrate and phosphorylated product. […] Compounds were dissolved at 10 mM in dimethylsulfoxide (DMSO) and evaluated at eleven concentrations. IC50 values were derived by non-linear regression analysis.
GSK3α, sequence (P49840 whole entry, species assumed): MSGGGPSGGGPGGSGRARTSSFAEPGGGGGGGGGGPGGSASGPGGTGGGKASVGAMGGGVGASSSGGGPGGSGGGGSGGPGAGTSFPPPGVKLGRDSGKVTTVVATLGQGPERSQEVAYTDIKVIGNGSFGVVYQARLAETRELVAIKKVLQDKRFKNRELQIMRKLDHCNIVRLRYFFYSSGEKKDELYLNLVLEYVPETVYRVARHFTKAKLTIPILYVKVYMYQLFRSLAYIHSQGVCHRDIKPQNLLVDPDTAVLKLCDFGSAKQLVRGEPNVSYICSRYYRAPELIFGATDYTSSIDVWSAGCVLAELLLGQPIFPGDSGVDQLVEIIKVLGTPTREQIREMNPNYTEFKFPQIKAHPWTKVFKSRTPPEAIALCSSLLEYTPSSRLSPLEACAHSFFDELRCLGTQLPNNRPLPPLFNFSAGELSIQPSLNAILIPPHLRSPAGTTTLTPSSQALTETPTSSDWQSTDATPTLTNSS

A further assay deals with GSK3β (Homo sapiens, UniProt P49841). Nature of the assay: GSK3β kinase assay (Caliper LabChip3000, fluoresceinated peptide substrate). Type of assay: biochemical. Particulars: for IC50: first value of the cell, 250 pM enzyme, 20 uM ATP, 20 hours at room temperature, read-out: GSK3β/α (nM): GSK3β IC50. The procedure:
as §1

pIC50: −log10 of the molar value. Like-named read-outs stand apart in the source and are kept apart here.

GSK3β, sequence (P49841 whole entry, species assumed): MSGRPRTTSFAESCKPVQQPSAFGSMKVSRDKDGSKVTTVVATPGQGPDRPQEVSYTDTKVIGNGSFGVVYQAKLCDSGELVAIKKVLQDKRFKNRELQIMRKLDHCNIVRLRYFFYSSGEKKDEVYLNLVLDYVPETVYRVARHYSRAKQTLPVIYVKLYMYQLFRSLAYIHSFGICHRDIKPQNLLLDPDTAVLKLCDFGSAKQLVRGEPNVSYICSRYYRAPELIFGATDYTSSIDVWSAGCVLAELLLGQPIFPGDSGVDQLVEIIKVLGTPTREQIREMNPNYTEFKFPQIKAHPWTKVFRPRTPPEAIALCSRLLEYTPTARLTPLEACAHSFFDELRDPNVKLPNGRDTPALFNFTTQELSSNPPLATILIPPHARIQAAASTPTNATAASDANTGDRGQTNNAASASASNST

With `O=C(Nc1cncc(-c2csc3ccccc23)c1)c1ccnc(NC(=O)C2CC2)c1` [Example 129], the IC50 at GSK3α came out at 7 nM; on GSK3β, 5.1 nM. As for `O=C1CC(C(=O)Nc2cc(C(=O)Nc3cnccc3-c3ccccc3)ccn2)C1` [Example 218, 2-(3-Oxocyclobutanecarboxamido)-N-(4-phenylpyridin-3-yl)isonicotinamide], the IC50 at GSK3β worked out at 3.9 nM. On to `CCCOc1ccccc1-c1cncc(NC(=O)c2ccnc(NC(=O)C3CC3)c2)c1` [Example 146, 2-(cyclopropanecarboxamido)-N-(5-(2-propoxyphenyl)pyridin-3-yl)isonicotinamide], for which the figures for the IC50 at GSK3α and at GSK3β were 3.4 nM and 4.5 nM, respectively. The matching figures for `O=C(Nc1cncc(C2CCCC2)c1)c1ccnc(NC(=O)C2CC2)c1` [Example 132, N-(5-cyclopentylpyridin-3-yl)-2-(cyclopropanecarboxamido)isonicotinamide]: 8 nM and 4.1 nM. For the compound `Cc1ncc(-c2cncc(NC(=O)c3ccnc(NC(=O)C4CC4)c3)c2)s1` [Example 159, 2-(cyclopropanecarboxamido)-N-(5-(2-methylthiazol-5-yl)pyridin-3-yl)isonicotinamide], the IC50 at GSK3α stood at 1.9 nM; on GSK3β, 4.7 nM. For `O=C(Nc1cncc(-c2ccccn2)c1)c1ccnc(NC(=O)C2CC2)c1` [Example 128, N-([2,3′-bipyridin]-5′-yl)-2-(cyclopropanecarboxamido)isonicotinamide], the figures for the IC50 on GSK3α and on GSK3β were 2.6 nM and 0.5 nM, respectively.

For the compound `O=C(Nc1cncc2c1CCCC2)c1ccnc(NC(=O)C2CC2)c1` [Example 21, 2-(Cyclopropanecarboxamido)-N-(5,6,7,8-tetrahydroisoquinolin-4-yl)isonicotinamide], the results for the IC50 at GSK3α and at GSK3β were 3.3 nM and 13 nM, respectively. The matching figures for `O=C(Nc1cncc(-c2ccccc2OC(F)(F)F)c1)c1ccnc(NC(=O)C2CC2)c1` [Example 149, 2-(cyclopropanecarboxamido)-N-(5-(2-(trifluoromethoxy)phenyl)pyridin-3-yl)isonicotinamide]: 1.75 nM and 8.5 nM.

As to `Cn1cc(-c2cncc(NC(=O)c3ccnc(NC(=O)C4CC4)c3)c2)cn1` [Example 152, 2-(cyclopropanecarboxamido)-N-(5-(1-methyl-1H-pyrazol-4-yl)pyridin-3-yl)isonicotinamid], the values for the IC50 at GSK3α and at GSK3β were 1.4 nM and 4.9 nM, respectively.

For the compound `O=C(Nc1cncc(-c2ccoc2)c1)c1ccnc(NC(=O)C2CC2)c1` [Example 121, 2-(cyclopropanecarboxamido)-N-(5-(furan-3-yl)pyridin-3-yl)isonicotinamide], the IC50 is 0.99 nM on GSK3α and 2.4 nM on GSK3β.

Take `O=C(Nc1cncc(-c2ccsc2)c1)c1ccnc(NC(=O)C2CC2)c1` [Example 117, 2-(cyclopropanecarboxamido)-N-(5-(thiophen-3-yl)pyridin-3-yl)isonicotinamide]: the IC50 on GSK3α amounted to 1.9 nM; at GSK3β, 1.2 nM.

In the case of `O=C(Nc1cncc(-c2cccc(F)c2)c1)c1ccnc(NC(=O)C2CC2)c1` [Example 126, 2-(cyclopropanecarboxamido)-N-(5-(3-fluorophenyl)pyridin-3-yl)isonicotinamide], the IC50 was 1.1 nM on GSK3α and 2.5 nM on GSK3β. On the same counts, the results for `CC(C)Oc1ccccc1-c1cncc(NC(=O)c2ccnc(NC(=O)C3CC3)c2)c1` [Example 136, 2-(cyclopropanecarboxamido)-N-(5-(2-isopropoxyphenyl)pyridin-3-yl)isonicotinamide] are 5.4 nM and 19 nM.

On to `O=C(Nc1cncc(-c2ccccc2Cl)c1)c1ccnc(NC(=O)C2CC2)c1` [Example 127, N-(5-(2-chlorophenyl)pyridin-3-yl)-2-(cyclopropanecarboxamido)isonicotinamide], for which the IC50 turned out to be 0.54 nM at GSK3α and 1.3 nM at GSK3β. Turning to `O=C(Nc1cncc(-c2c(F)cccc2F)c1)c1ccnc(NC(=O)C2CC2)c1` [Example 141, 2-(cyclopropanecarboxamido)-N-(5-(2,6-difluorophenyl)pyridin-3-yl)isonicotinamide], the IC50 on GSK3α is 4.3 nM; at GSK3β, 21 nM. `Cc1cc(-c2cncc(NC(=O)c3ccnc(NC(=O)C4CC4)c3)c2)c(C)s1` [Example 135, 2-(cyclopropanecarboxamido)-N-(5-(2,5-dimethylthiophen-3-yl)pyridin-3-yl)isonicotinamide]: the IC50 on GSK3β turned out to be 2.7 nM. Consider `O=C(Nc1cncc(-c2ccc(Cl)cc2)c1)c1ccnc(NC(=O)C2CC2)c1` [Example 133, N-(5-(4-chlorophenyl)pyridin-3-yl)-2-(cyclopropanecarboxamido)isonicotinamide], for which the IC50 amounted to 4.4 nM on GSK3α and 3.3 nM at GSK3β. For the compound `CC(=O)c1ccccc1-c1cncc(NC(=O)c2ccnc(NC(=O)C3CC3)c2)c1` [Example 144, N-(5-(2-acetylphenyl)pyridin-3-yl)-2-(cyclopropanecarboxamido)isonicotinamide], the IC50 was determined as 15 nM on GSK3α and 55 nM at GSK3β. On to `Cc1ccccc1-c1cncc(NC(=O)c2ccnc(NC(=O)C3CC3)c2)c1` [Example 122, 2-(cyclopropanecarboxamido)-N-(5-(o-tolyl)pyridin-3-yl)isonicotinamide], for which the IC50 on GSK3α stood at 3.3 nM; on GSK3β it was 7.3 nM. The matching figures for “2-((1,3-Trans)-3-chlorocyclobutanecarboxamido)-N-(4-phenylpyridin-3-yl)isonicotinamide [Example 220]”: 0.22 nM and 0.37 nM.

Turning to `N#Cc1cscc1-c1cncc(NC(=O)c2ccnc(NC(=O)C3CC3)c2)c1` [Example 131, N-(5-(4-cyanothiophen-3-yl)pyridin-3-yl)-2-(cyclopropanecarboxamido)isonicotinamide], the values for the IC50 on GSK3α and on GSK3β were 0.76 nM and 0.41 nM, respectively. `CC(C)c1ccccc1-c1cncc(NC(=O)c2ccnc(NC(=O)C3CC3)c2)c1` [Example 134, 2-(cyclopropanecarboxamido)-N-(5-(2-isopropylphenyl)pyridin-3-yl)isonicotinamide]: on GSK3β, the IC50 was 2.7 nM.

In the case of `O=C(Nc1cnccc1-c1ccc(C(F)(F)F)cc1C(F)(F)F)c1ccnc(NC(=O)C2CC2)c1` [Example 65, N-(4-(2,4-bis(trifluoromethyl)phenyl)pyridin-3-yl)-2-(cyclopropanecarboxamido)isonicotinamide], the IC50 is 25 nM on GSK3α and 29 nM on GSK3β. On the same counts, the results for `O=C(Nc1cncc(-c2cccc(Cl)c2Cl)c1)c1ccnc(NC(=O)C2CC2)c1` [Example 138, 2-(cyclopropanecarboxamido)-N-(5-(2,3-dichlorophenyl)pyridin-3-yl)isonicotinamide] are 1.8 nM and 10.5 nM. The matching figures for `O=C(Nc1cncc(-c2cccnc2)c1)c1ccnc(NC(=O)C2CC2)c1` [Example 125, N-([3,3′-bipyridin]-5-yl)-2-(cyclopropanecarboxamido)isonicotinamide]: 0.86 nM and 2 nM. The matching figures for “2-((1,3-Cis)-3-chlorocyclobutanecarboxamido)-N-(4-phenylpyridin-3-yl)isonicotinamide [Example 221]”: 0.09 nM and 0.16 nM. As for `O=C(Nc1cncc(-c2cccc3cccnc23)c1)c1ccnc(NC(=O)C2CC2)c1` [Example 143, 2-(cyclopropanecarboxamido)-N-(5-(quinolin-8-yl)pyridin-3-yl)isonicotinamide], the IC50 stood at 35 nM on GSK3α and 190 nM at GSK3β. Turning to `N#Cc1cc(F)ccc1-c1ccncc1NC(=O)c1ccnc(NC(=O)C2CC2)c1` [Example 89, N-(4-(2-cyano-4-fluorophenyl)pyridin-3-yl)-2-(cyclopropanecarboxamido)isonicotinamide], the IC50 at GSK3α was determined as 190 nM; at GSK3β it was 470 nM. Regarding `O=C(Nc1cncc(-c2cc(Cl)ccc2F)c1)c1ccnc(NC(=O)C2CC2)c1` [Example 153, N-(5-(5-chloro-2-fluorophenyl)pyridin-3-yl)-2-(cyclopropanecarboxamido)isonicotinamide], the IC50 at GSK3α turned out to be 1.6 nM; at GSK3β it was 5.3 nM. The pIC50 is the IC50 on a negative log10 scale, so that one unit is a factor of ten. High values mean a low IC50, low ones a high IC50. For `O=C(Nc1cncc(-c2cccc(F)c2F)c1)c1ccnc(NC(=O)C2CC2)c1` [Example 137, 2-(cyclopropanecarboxamido)-N-(5-(2,3-difluorophenyl)pyridin-3-yl)isonicotinamide], the pIC50 on GSK3α is 9.13; against GSK3β it was 8.47. In the case of `O=C(Nc1cncc(-c2cccc(Cl)c2F)c1)c1ccnc(NC(=O)C2CC2)c1` [Example 140, N-(5-(3-chloro-2-fluorophenyl)pyridin-3-yl)-2-(cyclopropanecarboxamido)isonicotinamide], the IC50 on GSK3α was found to be 2.8 nM; on GSK3β it was 13 nM. For the compound `COc1cccc(-c2cncc(NC(=O)c3ccnc(NC(=O)C4CC4)c3)c2)c1F` [Example 139, 2-(cyclopropanecarboxamido)-N-(5-(2-fluoro-3-methoxyphenyl)pyridin-3-yl)isonicotinamide], the IC50 on GSK3α turned out to be 0.81 nM. The compound also had a negative-log IC50 (pIC50) against GSK3β of 8.43. For the compound `O=C(Nc1cnccc1-c1ccccc1)c1ccnc(NC(=O)C2CC(Cl)C2)c1` (stereo not shown) [Example 215, 2-(3-Cholorocyclobutanecarboxamido)-N-(4-phenylpyridin-3-yl)isonicotinamide], the figures for the IC50 on GSK3α and on GSK3β were 0.25 nM and 0.4 nM, respectively.

`O=C1CCC(C(=O)Nc2cc(C(=O)Nc3cnccc3-c3ccccc3)ccn2)C1` (stereo not shown) [Example 229, 2-(3-Oxocyclopentanecarboxamido)-N-(4-phenylpyridin-3-yl)isonicotinamide]: the IC50 on GSK3β came out at 1.6 nM.
